# Data reported in PubChem BioAssay (NCI).
#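 Following 48 hours of exposure in 96-well plates, responses at five concentrations were used to interpolate endpoints linearly. Definition used: TGI = concentration required for complete inhibition of growth.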
# Legend:
# Experiment in all cases: NCI tumour cell line growth inhibition, 48 h
# [1] = test system: M14 melanoma
# [2] = test system: MDA-MB-435
# [3] = test system: NCI-H226 lung
# [4] = test system: IGROV1 ovarian
# [5] = test system: OVCAR-5 ovarian
# [6] = test system: MOLT-4 leukemia
# [7] = test system: CAKI-1 renal
# [8] = test system: A498 renal
# [9] = test system: MCF7 breast
# [10] = test system: T-47D breast
# [11] = test system: LOX IMVI melanoma
# [12] = test system: NCI-H522 lung
# [13] = test system: SF-268 CNS
# [14] = test system: HCT-116 colon
# [15] = test system: SW-620 colon
# [16] = test system: OVCAR-4 ovarian
# [17] = test system: OVCAR-8 ovarian
# [18] = test system: NCI-H460 lung
# [19] = test system: HCT-15 colon
# [20] = test system: ACHN renal
# [21] = test system: OVCAR-3 ovarian
# [22] = test system: SNB-75 CNS
# [23] = test system: RPMI-8226 leukemia
# [24] = test system: HOP-92 NSCLC
# [25] = test system: HS 578T breast
# [26] = test system: UACC-257 melanoma
# [27] = test system: MDA-N
# [28] = test system: MALME-3M melanoma
# [29] = test system: HL-60(TB) leukemia
# [30] = test system: SNB-19 CNS
# [31] = test system: SK-MEL-5 melanoma
# [32] = test system: K-562 leukemia
# [33] = test system: UO-31 renal
# [34] = test system: SK-MEL-28 melanoma
# [35] = test system: SK-OV-3 ovarian
# [36] = test system: SK-MEL-2 melanoma
# [37] = test system: SR leukemia
# [38] = test system: PC-3 prostate
# [39] = test system: A549 NSCLC
# [40] = test system: DU-145 prostate
# [41] = test system: TK-10 renal
# [42] = test system: CCRF-CEM leukemia
# [43] = test system: SF-295 CNS
# [44] = test system: SF-539 CNS
# [45] = test system: U251 CNS
# [46] = test system: KM12 colon
# [47] = test system: HOP-62 NSCLC
# [48] = test system: COLO 205 colon
# [49] = test system: NCI-H23 lung
# [50] = test system: UACC-62 melanoma
# [51] = test system: BT-549 breast
# [52] = test system: HCC-2998 colon
# [53] = test system: EKVX NSCLC
# [54] = test system: HT29 colon
# [55] = test system: RXF 393 renal
# [56] = test system: NCI/ADR-RES ovarian
# [57] = test system: SN12C renal
# [58] = test system: 786-0 renal
# [59] = test system: MDA-MB-231 breast
smiles,measurement,setting,value
O=C(Nc1ccc([N+](=O)[O-])cc1)Nn1cnnc1,TGI,[1],> 100 µM
same,TGI,[2],> 100 µM
same,TGI,[3],2.31 µM
same,TGI,[4],> 100 µM
same,TGI,[5],> 100 µM
same,TGI,[6],> 100 µM
same,TGI,[7],> 100 µM
same,TGI,[8],> 100 µM
same,TGI,[9],> 100 µM
same,TGI,[10],> 100 µM
same,TGI,[11],> 100 µM
same,TGI,[12],> 100 µM
same,TGI,[13],> 100 µM
same,TGI,[14],> 100 µM
same,TGI,[15],> 100 µM
same,TGI,[16],43.2 µM
same,TGI,[17],67 µM
same,TGI,[18],> 100 µM
same,TGI,[19],> 100 µM
same,TGI,[20],> 100 µM
same,TGI,[21],72.8 µM
same,TGI,[22],> 100 µM
same,TGI,[23],> 100 µM
same,TGI,[24],> 100 µM
same,TGI,[25],93.2 µM
same,TGI,[26],> 100 µM
same,TGI,[27],> 100 µM
same,TGI,[28],80 µM
same,TGI,[29],> 100 µM
same,TGI,[30],> 100 µM
same,TGI,[31],> 100 µM
same,TGI,[32],> 100 µM
same,TGI,[33],> 100 µM
same,TGI,[34],> 100 µM
same,TGI,[35],> 100 µM
same,TGI,[36],> 100 µM
same,TGI,[37],> 100 µM
same,TGI,[38],> 100 µM
same,TGI,[39],> 100 µM
same,TGI,[40],> 100 µM
same,TGI,[41],> 100 µM
same,TGI,[42],> 100 µM
same,TGI,[43],63.4 µM
same,TGI,[44],73.9 µM
same,TGI,[45],> 100 µM
same,TGI,[46],72.6 µM
same,TGI,[47],> 100 µM
same,TGI,[48],> 100 µM
same,TGI,[49],48.8 µM
same,TGI,[50],> 100 µM
same,TGI,[51],69.7 µM
same,TGI,[52],> 100 µM
same,TGI,[53],> 100 µM
same,TGI,[54],> 100 µM
Cn1c(=O)c2[nH]c(N=O)nc2n(C)c1=O,TGI,[1],> 100 µM
same,TGI,[2],> 100 µM
same,TGI,[55],> 100 µM
same,TGI,[3],> 100 µM
same,TGI,[4],> 100 µM
same,TGI,[5],> 100 µM
same,TGI,[6],> 100 µM
same,TGI,[7],> 100 µM
same,TGI,[8],> 100 µM
same,TGI,[9],> 100 µM
same,TGI,[56],> 100 µM
same,TGI,[10],> 100 µM
same,TGI,[11],> 100 µM
same,TGI,[12],> 100 µM
same,TGI,[13],> 100 µM
same,TGI,[14],> 100 µM
same,TGI,[15],> 100 µM
same,TGI,[16],> 100 µM
same,TGI,[17],> 100 µM
same,TGI,[18],> 100 µM
same,TGI,[19],> 100 µM
same,TGI,[21],> 100 µM
same,TGI,[22],> 100 µM
same,TGI,[23],> 100 µM
same,TGI,[25],> 100 µM
same,TGI,[26],> 100 µM
same,TGI,[27],> 100 µM
same,TGI,[28],> 100 µM
same,TGI,[29],> 100 µM
same,TGI,[32],> 100 µM
same,TGI,[33],> 100 µM
same,TGI,[57],> 100 µM
same,TGI,[34],> 100 µM
same,TGI,[35],> 100 µM
same,TGI,[36],> 100 µM
same,TGI,[38],> 100 µM
same,TGI,[39],> 100 µM
same,TGI,[40],> 100 µM
same,TGI,[41],> 100 µM
same,TGI,[43],> 100 µM
same,TGI,[58],> 100 µM
same,TGI,[44],> 100 µM
same,TGI,[45],> 100 µM
same,TGI,[46],> 100 µM
same,TGI,[47],> 100 µM
same,TGI,[48],> 100 µM
same,TGI,[49],> 100 µM
same,TGI,[50],> 100 µM
same,TGI,[51],> 100 µM
same,TGI,[52],> 100 µM
same,TGI,[53],> 100 µM
same,TGI,[54],> 100 µM
same,TGI,[59],> 100 µM
